Experimental data from the NIST ThermoML archive (doi:10.1016/j.fluid.2009.06.015).
± gives the expanded uncertainty stated by the source.

Assay: excess molar enthalpy (molar enthalpy of mixing); xn = mol fraction of the nth substance listed
Details: 101 kPa, Liquid, Flow calorimetry

c1ccccc1 [benzene] + CCCCO
excess molar enthalpy [kcal/mol]
Details	298.15 K	313.15 K
x1 = 0.0494	–	0.0354 ± 0.00143
x1 = 0.0504	0.0282 ± 0.00115	–
x1 = 0.0997	0.0566 ± 0.00155	–
x1 = 0.1007	–	0.0726 ± 0.00198
x1 = 0.1497	0.0851 ± 0.00208	0.108 ± 0.00263
x1 = 0.1997	0.113 ± 0.00263	–
x1 = 0.2007	–	0.143 ± 0.00335
x1 = 0.2495	–	0.175 ± 0.00382
x1 = 0.2505	0.141 ± 0.00311	–
x1 = 0.3001	0.167 ± 0.00359	–
x1 = 0.3002	–	0.206 ± 0.00454
x1 = 0.3506	0.191 ± 0.00406	–
x1 = 0.3507	–	0.234 ± 0.00502
x1 = 0.3999	0.212 ± 0.00454	–
x1 = 0.401	–	0.26 ± 0.00574
x1 = 0.4493	–	0.28 ± 0.00598
x1 = 0.4502	0.23 ± 0.00502	–
x1 = 0.4993	–	0.297 ± 0.00645
x1 = 0.5002	0.246 ± 0.00526	–
x1 = 0.5492	–	0.31 ± 0.00669
x1 = 0.5501	0.257 ± 0.0055	–
x1 = 0.5998	0.265 ± 0.00574	–
x1 = 0.601	–	0.317 ± 0.00669
x1 = 0.6505	0.267 ± 0.00574	–
x1 = 0.6506	–	0.32 ± 0.00693
x1 = 0.7	0.264 ± 0.00574	–
x1 = 0.7001	–	0.316 ± 0.00669
x1 = 0.7495	–	0.306 ± 0.00669
x1 = 0.7503	0.256 ± 0.0055	–
x1 = 0.7996	0.242 ± 0.00526	–
x1 = 0.8007	–	0.287 ± 0.00621
x1 = 0.8497	0.22 ± 0.00478	–
x1 = 0.8498	–	0.259 ± 0.00574
x1 = 0.8996	0.185 ± 0.0043	–
x1 = 0.9007	–	0.215 ± 0.00502
x1 = 0.9495	–	0.145 ± 0.00382
x1 = 0.9504	0.129 ± 0.00335	–
